pIC50, pKi: −log10 of the molar value. Values after ≈ are worked out from the molar mass of the structure shown. Like-named read-outs stand apart in the source and are kept apart here.

Results on 14 compounds are retold here after US11013730B1, “Composition comprising selenazol or thiazalone derivatives and silver and method of treatment therewith” (Thioredoxin Systems AB, priority 2014, dated 2021).

One data set relates to gshA^− DHB4 E. coli. Kind of data set: Inhibition of bacterial growth (MIC), gshA^− DHB4 E. coli. Conditions: for sensitivity of gshA^− / gor^− strains compared with wild type: E. coli strains wt; for MIC: Escherichia coli, read-out: MIC for gshA^− DHB4 E. coli.
Data set [1] in a line: Glutathione peroxidase (GPx) activity of the compounds. The class given is biochemical. The conditions noted are these: relative; EbSe 6 = 1.
A further data set relates to Gor DHB4 E. coli. Kind of data set: Inhibition of bacterial growth (MIC), Gor DHB4 E. coli. The conditions noted are these: for MIC: Escherichia coli, DHB4E.COLI, read-out: MIC for Gor DHB4 E. coli.
Another data set addresses E. coli TrxR (Escherichia coli, UniProt P0A9P4). Kind of data set: E. coli TrxR inhibition, thioredoxin dependent DTNB reduction assay. The class given is biochemical. The protocol: Further we examined the effect of ebselen in the reduction of disulfide by E. coli Trx and TrxR using both DTNB and insulin as substrates.
All the benzisoselenazol-3(2H)-one and bisbenzisoselenazol-3(2H)-one derivatives were tested as potential E. coli TrxR inhibitors by standard DTNB assay. […] The reactions were started by adding 1 mM DTNB to the mixture of 100 nM TrxR, 2 μM Trx, 240 μM NADPH, and different concentration of inhibitor (1-40 μM). […] The reactions were started by adding 6 nM TrxR at room temperature. Inhibition constants (Ki) for all the compounds were measured from Dixon plot, which plots 1/v versus […], I=Inhibitor concentration).

Another data set relates to wild type DHB4 E. coli. As to the kind of experiment: Inhibition of bacterial growth (MIC), wild type DHB4 E. coli. The conditions noted are these: for MIC: Escherichia coli, DHB4E.COLI, read-out: MIC for wild type DHB4 E. coli.
In the next data set the test system is HEK 293T cells. As to the kind of experiment: HEK 293T cells growth (cytotoxicity). The class given is cell-based.
Another data set deals with T1, recombinant rat TrxR (Rattus norvegicus, UniProt O89049).
T1 sequence (O89049 1-499): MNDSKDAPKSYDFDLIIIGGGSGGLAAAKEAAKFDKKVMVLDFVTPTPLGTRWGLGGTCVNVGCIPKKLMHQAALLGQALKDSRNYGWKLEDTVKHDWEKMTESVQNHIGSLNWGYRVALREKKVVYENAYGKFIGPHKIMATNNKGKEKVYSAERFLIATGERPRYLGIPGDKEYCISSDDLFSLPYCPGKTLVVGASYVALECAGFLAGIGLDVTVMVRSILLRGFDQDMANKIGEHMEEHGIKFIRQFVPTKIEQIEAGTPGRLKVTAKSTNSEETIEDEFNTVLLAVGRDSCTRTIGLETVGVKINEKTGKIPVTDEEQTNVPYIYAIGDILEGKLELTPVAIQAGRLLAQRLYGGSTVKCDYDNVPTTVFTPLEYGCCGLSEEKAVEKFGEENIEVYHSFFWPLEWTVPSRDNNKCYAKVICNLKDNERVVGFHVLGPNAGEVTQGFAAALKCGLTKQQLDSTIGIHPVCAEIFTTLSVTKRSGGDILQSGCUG
As to the kind of experiment: Inhibition of mammalian (recombinant rat) TrxR.

The mark [2] stands for this setting: Dixon plot, 6 nM TrxR, Trx 1, 2 or 4 μM.
Where [3] appears, read: DTNB assay, 100 nM TrxR, 2 μM Trx, 240 μM NADPH, 1 mM DTNB, read-out: IC50 for E. coli TrxR.
[4] abbreviates: Dixon plot, 6 nM TrxR, Trx 1, 2 or 4 μM, read-out: Ki for E. coli TrxR.
Where [5] appears, read: Homo sapiens, HEK-293T; read-out: IG50 for HEK 293T.
[6] abbreviates: Homo sapiens, HEK-293T, read-out: IG50 for HEK 293T.

Chain of E. coli TrxR (P0A9P4 whole entry): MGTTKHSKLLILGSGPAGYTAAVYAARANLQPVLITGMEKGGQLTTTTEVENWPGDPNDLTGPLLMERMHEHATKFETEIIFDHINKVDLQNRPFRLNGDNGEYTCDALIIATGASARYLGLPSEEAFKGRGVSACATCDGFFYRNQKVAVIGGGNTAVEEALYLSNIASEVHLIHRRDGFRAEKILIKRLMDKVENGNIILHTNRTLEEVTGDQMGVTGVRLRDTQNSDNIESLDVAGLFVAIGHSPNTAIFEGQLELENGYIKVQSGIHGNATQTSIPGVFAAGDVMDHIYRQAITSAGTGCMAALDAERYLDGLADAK
Description for Gor DHB4 E. coli: (§1) Here E. coli DHB4 strains wt, gshA^−, gor^−, oxyR^− were used as the model to test the antibiotics activity of these ebselen derivatives.
Description for gshA^− DHB4 E. coli: as §1
Description for wild type DHB4 E. coli: as §1

As to `O=c1c2ccccc2[se]n1-c1ccc(Cl)cc1` [EbSe 11], the “MIC for gshA^− DHB4 E. coli” value in the data set with gshA^− DHB4 E. coli was “No Inhibition”. Moreover, the “Relative GPx activity” value in data set [1] is 0.87. Moreover, the “MIC for Gor DHB4 E. coli” value against Gor DHB4 E. coli is reported as “No Inhibition”. In addition, at E. coli TrxR, the pIC50 is below 4.40 and the negative-log Ki (pKi) is 6.52. In addition, on E. coli TrxR (setting [2]), the “Ki for E. coli TrxR” value is “Not detected”. In addition, the “MIC for wild type DHB4 E. coli” value in the data set with wild type DHB4 E. coli is reported as “No Inhibition”. The pIC50 in the data set with HEK 293T cells (read-out: IG50 for HEK 293T) was below 3.80.
In the case of `O=c1c2cccnc2[se]n1-c1ccc(Cl)cc1` [EbSe19], the pIC50 at E. coli TrxR (setting [3]) was 5.52. In addition, the negative logarithm of the Ki (pKi) at E. coli TrxR (setting [4]) is 6.30.
Take `O=c1[nH][se]c2ccccc12` [EbSe 2]: the pIC50 at recombinant rat TrxR was below 5.00; on E. coli TrxR (setting [3]), 4.82; with HEK 293T cells (setting [5]) it was 4.02. In addition, the “Relative GPx activity” value in data set [1] is 0.97. Also, on E. coli TrxR (setting [2]), the “Ki for E. coli TrxR” value is listed as “Not detected”. The pKi at E. coli TrxR (setting [4]) is 6.00.
Take `NCCn1[se]c2ccccc2c1=O` [EbSe5]: the pIC50 at E. coli TrxR (setting [3]) is 5.67. The pKi at E. coli TrxR (setting [4]) was 7.46.
For `CCOC(=O)c1cccnc1[Se]Nc1ccc(Cl)cc1` [EbSe 22], the pIC50 at E. coli TrxR (setting [3]) was below 5.00. Also, at E. coli TrxR (setting [4]), the pKi was 5.12.
On to `O=C(O)c1ccc(-n2[se]c3ccccc3c2=O)cc1` [EbSe 10], for which the values for the pIC50 at recombinant rat TrxR, on E. coli TrxR (setting [3]) and in the data set with HEK 293T cells (setting [5]) were below 5.00, 4.82 and 4.26, respectively. Also, the “Relative GPx activity” value in data set [1] is 1.8. For the same compound, the “Ki for E. coli TrxR” value at E. coli TrxR (setting [2]) is given as “Not detected”.
As to `CCOC(=O)c1cccnc1[Se]Nc1ccc(Cl)cn1` [compound 2], the “MIC for gshA^− DHB4 E. coli” value with gshA^− DHB4 E. coli was “No Inhibition”. Further, the “MIC for Gor DHB4 E. coli” value against Gor DHB4 E. coli is given as “No Inhibition”. The pIC50 was below 5.00 on E. coli TrxR (setting [3]) and 4.22 in the data set on HEK 293T cells (setting [6]). Moreover, at E. coli TrxR (setting [4]), the pKi is 5.12. The “MIC for wild type DHB4 E. coli” value against wild type DHB4 E. coli is “No Inhibition”.
On to `O=c1c2ccccc2[se]n1CCCCCCn1[se]c2ccccc2c1=O` [EbSe 16], for which the “sensitivity of gshA^− / gor^− strains compared with wild type” value with gshA^− DHB4 E. coli was “same sensitivity”. The values for the minimum inhibitory concentration (MIC) with gshA^− DHB4 E. coli, in the data set on Gor DHB4 E. coli and with wild type DHB4 E. coli were 20 µM (≈ 9.57 µg/mL), 35 µM (≈ 16.7 µg/mL) and 20 µM (≈ 9.57 µg/mL), respectively. Further, the pIC50 on E. coli TrxR (setting [3]) is 5.65; with HEK 293T cells (setting [6]), 5.04. Moreover, the pKi at E. coli TrxR (setting [4]) was 7.60; at E. coli TrxR (for the selenium released stock, read-out: Ki for E. coli TrxR, selenium released stock), 8.00.
On to `O=c1c2ccccc2[se]n1-c1ccc(Cl)cc1` [EbSe 7], for which the MIC in the data set with gshA^− DHB4 E. coli amounted to 20 µM (≈ 6.17 µg/mL); in the data set on Gor DHB4 E. coli it was 23 µM (≈ 7.1 µg/mL); in the data set with wild type DHB4 E. coli, 34 µM (≈ 10.5 µg/mL). For the same compound, the values for the pIC50 at recombinant rat TrxR, on E. coli TrxR (setting [3]) and with HEK 293T cells (setting [5]) were below 5.00, 5.15 and 3.92, respectively. Further, the “Relative GPx activity” value in data set [1] came out at 0.64. Further, the negative logarithm of the Ki (pKi) at E. coli TrxR (setting [4]) was 6.26.
In the case of `O=C(O)c1ccccc1-n1[se]c2ccccc2c1=O` [EbSe 9], the MIC with gshA^− DHB4 E. coli stood at 24 µM (≈ 7.64 µg/mL); in the data set with Gor DHB4 E. coli, 31 µM (≈ 9.86 µg/mL); in the data set with wild type DHB4 E. coli it was 49 µM (≈ 15.6 µg/mL). The pIC50 was 6.10 on recombinant rat TrxR, 5.12 on E. coli TrxR (setting [3]) and below 3.80 in the data set with HEK 293T cells (setting [5]). The “Relative GPx activity” value in data set [1] was 2.1. Moreover, at E. coli TrxR (setting [4]), the negative logarithm of the Ki (pKi) is 5.92.
In the case of `Cn1[se]c2ccccc2c1=O` [EbSe 3], the pIC50 at recombinant rat TrxR was below 5.00; at E. coli TrxR (setting [3]), 4.82; in the data set on HEK 293T cells (setting [5]), 4.00. Besides, in data set [1], the “Relative GPx activity” value was found to be 1.2. Also, at E. coli TrxR (setting [2]), the “Ki for E. coli TrxR” value is recorded as “Not detected”.
On E. coli TrxR, `O=c1c2ccccc2[se]n1CCCn1[se]c2ccccc2c1=O` [EbSe 15] gave a pKi of 7.42. Moreover, the results for the pIC50 on E. coli TrxR (setting [3]) and in the data set on HEK 293T cells (setting [5]) were 5.68 and 5.02, respectively.
Turning to `CC(C)(C)n1[se]c2ccccc2c1=O` [EbSe 4], the figures for the pIC50 at recombinant rat TrxR, at E. coli TrxR (setting [3]) and in the data set with HEK 293T cells (setting [5]) were below 5.00, 4.82 and 4.12, respectively. Moreover, the “inhibition of mammalian TrxR (in words)” value on recombinant rat TrxR is recorded as “some activity”. For the same compound, in data set [1], the “Relative GPx activity” value is given as 1.1. In addition, the “Ki for E. coli TrxR” value on E. coli TrxR (setting [2]) was “Not detected”.
Turning to `O=c1c2ccccc2[se]n1CCn1[se]c2ccccc2c1=O` [EbSe 14], the “sensitivity of gshA^− / gor^− strains compared with wild type” value in the data set on gshA^− DHB4 E. coli is given as “same sensitivity”. Moreover, the results for the MIC in the data set on gshA^− DHB4 E. coli, with Gor DHB4 E. coli and in the data set on wild type DHB4 E. coli were 23 µM (≈ 9.71 µg/mL), 19 µM (≈ 8.02 µg/mL) and 23 µM (≈ 9.71 µg/mL), respectively. For the same compound, the pIC50 on E. coli TrxR (setting [3]) is 5.70. For the same compound, the pKi at E. coli TrxR (setting [4]) is 7.30.
